Experimental data from publication PMC10489817, “2-Alkyl-Substituted-4-Amino-Thieno[2,3-d]Pyrimidines: Anti-Proliferative Properties to In Vitro Breast Cancer Models” (Molecules, 2023).
Like-named read-outs stand apart in the source and are kept apart here.

Columns and labels:
[1] = in vitro 3T3 NRU test, cytotoxicity; assay type: cell-based, mouse; conditions: mouse, BALB/3T3 clone A31 cells (mouse embryo fibroblasts)
Protocol: (§1) Compounds 2–5 were studied for cytotoxicity/phototoxicity by an in vitro 3T3 NRU-test. The cell line BALB 3T3, clone A31 (mouse embryo fibroblasts), was incubated with the test compounds at a concentration from 15 to 4000 µg/mL for 24 h at 37 °C, 5% CO2, and 95% humidity. The cytotoxicity and phototoxicity were expressed in percentages relative to the negative control determined. […] Based on the dose–response curves, the CC50/PC50 values (50% cytotoxic/phototoxic concentration) were calculated by nonlinear regression analysis (Table 1). The CC50 values can be used to calculate the PIF (photo-irritancy factor) for each test compound according to the following formula: PIF = CC50/PC50.
(§2) BALB/3T3 cells were cultured in 75 cm^2 tissue culture flasks in DMEM, 10% FBS, 2 mM glutamine, and antibiotics (penicillin 100 U/mL and streptomycin-100 µg/mL) at 37 °C, 5% CO2, and 90% relative humidity. Cytotoxicity/phototoxicity was assessed by a validated BALB/3T3 clone A31 neutral red uptake assay (3T3 NRU test). Briefly, cells were plated in a 96-well microtiter plate at a density of 1 × 10^4 cells/100 µL/well and incubated for 24 h. A wide concentration range was applied for the test compounds. For the phototoxicity tests, 96-well plates were irradiated with a dose of 2.4 J/cm^2, and the cells were incubated for an additional 24 h. After treatment with neutral red medium, washing, and treatment with the ethanol/acetic acid solution, the absorption was measured on a TECAN microplate reader (TECAN, Grödig, Austria) at a wavelength of 540 nm. The light source which we used was a light-emitting diode (LED) matrix—an artificial solar light simulator Helios-iO, model LE-9ND55-H—5500K (SERIC Ltd., Tokyo, Japan).
Cytotoxicity/phototoxicity were expressed as CC50/PC50 values (concentrations required for 50% cytotoxicity/phototoxicity), calculated using non-linear regression analysis (GraphPad Software GraphPad Prism 9.5.1, San Diego, CA, USA). The CC50 values were used to calculate the PIF (photo-irritancy factor) for each test substance, according to the following formula: […]

BALB 3T3 cells = test: in vitro 3T3 NRU test, phototoxicity; assay type: cell-based, mouse; conditions: for IC50: Mus musculus, light or radiation study; for PIF (photo-irritancy factor): PIF = CC50/PC50, <2 not phototoxic
Protocol: as §1, §2
Cytotoxicity/phototoxicity were expressed as CC50/PC50 values (concentrations required for 50% cytotoxicity/phototoxicity), calculated using non-linear regression analysis (GraphPad Software GraphPad Prism 9.5.1, San Diego, CA, USA). The CC50 values were used to calculate the PIF (photo-irritancy factor) for each test substance, according to the following formula:
PIF = Cytotoxicity (CC50)/Phototoxicity (PC50)

MCF-7 = test: Cell cycle analysis by propidium iodide staining, MCF-7; assay type: cell-based, human; conditions: for cell cycle arrest phase, MCF-7: ER positive cell line; for change of %G1 vs control, MCF-7 / change of %G2 vs control, MCF-7 / change of %S vs control, MCF-7: control = 100%, 24 h; for %G1, MCF-7 / %G2, MCF-7 / %S, MCF-7: treated at IC50, 24 h
Protocol: Our study continued with the examination of the effect of the newly synthesized compounds’ IC50 values on cell cycle progression. The cell aliquots were collected, and FACS analyses were used to detect the effects of cell treatments with the selected compounds (2, 4, and 5). A propidium iodide staining assay was performed.
The changes in the cell cycle distribution in % (G1, S, and G2 phases), based on the graphical figures A–C, were calculated and are given in Table 4.
The cells were trypsinized, suspended in medium + 10% FCS, and centrifuged (1000 rpm, 5 min); then, the pellet was suspended in PBS (1 mL) and fixed with EtOH. The cells were suspended in 2.5 mL pre-cold 70% EtOH and incubated on ice for 15 min. The staining procedure was as follows: the pellet was suspended in a 500 μL PI-solution in PBS and 0.1 mg/mL RNase A, and 0.05% Triton X-100 was added. After incubation for 10 min at 37 °C, the cells were transferred to the flow cytometer and cell fluorescence was measured. The samples were measured by flow cytometry (LSR II, BD Biosciences, Franklin Lakes, NJ, USA) and analyzed using BD FACS DIVA software v. 6.1.3 (BD Biosciences).

[2] = BALB 3T3, 24 h, NRU, no irradiation (CC50), read-out: IC50 of Mean ± SD, Cytotoxicity
[3] = BALB 3T3, value in brackets, read-out: IC50, Cytotoxicity (converted)
[4] = BALB 3T3, irradiated 2.4 J/cm^2 (PC50), read-out: IC50 of Mean ± SD, Phototoxicity
[5] = BALB 3T3, irradiated, value in brackets, read-out: IC50, Phototoxicity (converted)

CCOC(=O)c1sc2nc(CC)nc(N)c2c1C [Compound 4, Ethyl 4-Amino-2-Ethyl-5-Methylthieno[2,3-d]Pyrimidine-6-Carboxylate]
IC50 at 24 h [1, 2]: 2630 µg/mL | IC50 at 24 h [1, 3]: 9.37 mM | IC50 (BALB 3T3 cells; [4]): 2110 ± 122 µg/mL | IC50 (BALB 3T3 cells; [5]): 8 mM | PIF (photo-irritancy factor) (BALB 3T3 cells): 1.2 | cell cycle arrest phase, MCF-7 (MCF-7): arrest was detected in the G1 phase | change of %G1 vs control, MCF-7 (MCF-7): +20% | change of %G2 vs control, MCF-7 (MCF-7): −22.55% | change of %S vs control, MCF-7 (MCF-7): −8.35% | %G1, MCF-7 (MCF-7): 48.5% | %G2, MCF-7 (MCF-7): 7.769% | %S, MCF-7 (MCF-7): 39.5%

CCOC(=O)Cc1nc(N)c2c(C)c(C(=O)OCC)sc2n1 [Compound 2, Ethyl 4-Amino-2-(2-Ethoxy-2-Oxoethyl)-5-Methylthieno[2,3-d]Pyrimidine-6-Carboxylate]
IC50 at 24 h [1, 2]: 1740 ± 75.5 µg/mL | IC50 at 24 h [1, 3]: 5.37 mM | IC50 (BALB 3T3 cells; [4]): 1080 ± 117 µg/mL | IC50 (BALB 3T3 cells; [5]): 3.3 mM | cell cycle arrest phase, MCF-7 (MCF-7): arrest was detected in the G1 phase | change of %G1 vs control, MCF-7 (MCF-7): +11.1% | change of %G2 vs control, MCF-7 (MCF-7): +7.75% | change of %S vs control, MCF-7 (MCF-7): −7.65% | %G1, MCF-7 (MCF-7): 44.9% | %G2, MCF-7 (MCF-7): 10.7% | %S, MCF-7 (MCF-7): 39.8%

CCOC(=O)c1sc2nc(C)nc(N)c2c1C [Compound 5, Ethyl 4-Amino-2,5-Dimethyl-Thieno[2,3-d]Pyrimidine-6-Carboxylate]
IC50 at 24 h [1, 2]: 1540 ± 61.5 µg/mL | IC50 at 24 h [1, 3]: 5.4 mM | IC50 (BALB 3T3 cells; [4]): 2350 ± 114 µg/mL | IC50 (BALB 3T3 cells; [5]): 9.4 mM | PIF (photo-irritancy factor) (BALB 3T3 cells): 1.2 | cell cycle arrest phase, MCF-7 (MCF-7): arrest was detected in the G1 phase | change of %G1 vs control, MCF-7 (MCF-7): +20.54% | change of %G2 vs control, MCF-7 (MCF-7): −15.7% | change of %S vs control, MCF-7 (MCF-7): −10.2% | %G1, MCF-7 (MCF-7): 48.7% | %G2, MCF-7 (MCF-7): 8.40% | %S, MCF-7 (MCF-7): 38.7%
